Converted amounts (≈) assume the structure as drawn.
Test system: Escherichia coli
Experiment: Antibacterial activity against Escherichia coli HS294 after 18 hrs by microtitre plate method
Assay type: functional

MIC: 40 µg/mL (≈ 159 µM)
Compound: C[C@H]1CCCC[C@H]2C(=O)C=C[C@H](O)[C@@H]2CC(=O)O1
